In paper PMC12040169 (PLOS Biology, 2025):

Assay: in vitro
Conditions: human, hela cells

SMILES | viability at 28.5 h, 10 µM (% viability) [%] | also measured
CC(C)n1c(SCC(=O)Nc2nc(C(C)(C)C)cs2)nc2c1c(=O)n(C)c(=O)n2C [CBK127417] | 104 | 
COC(=O)c1ccc(N2C(=O)NC(=O)/C(=C\c3ccccc3OCC(=O)O)C2=O)cc1 [CBK265459] |  | viability at 28.5 h, 10 µM (% viability, bulk resorufin, single well): 84.7%
O=C1CCc2cc(S(=O)(=O)Nc3ccccc3-c3ccccc3)ccc2N1 [CBK286366] | 92.6 | 
COc1cccc(N2C(=O)N[C@@H]3CCN(C(=O)c4cccs4)[C@@H]3C2=O)c1 [CBK289279] | 82.3 | 
CCCc1n[nH]c(=S)n1CC(=O)NCc1ccc(N2CC(C)OC(C)C2)nc1 (stereo not shown) [CBK297741] | 90.4 | 
O=C(NCCCc1ccccn1)c1cccc(N2CCCC2=O)c1 [CBK282643] | 85.9 | 
NC(=O)CN1CCCC2(CCN(C(=O)Cc3c[nH]c4ccccc34)C2)C1 (stereo not shown) [CBK132046] | 87.4 | 
O=C(Nc1ccccc1)Nc1ccc([N+](=O)[O-])cc1 [CBK016975] | 99.6 | 
Cc1ccc(CN2CCC3(CCCNC3=O)CC2)cc1 [CBK284822] | 90.6 | 
Cc1noc(C)c1NC(=O)c1ccncc1 [CBK200389] | 89.9 | 
COc1ccc(CN2CCN(C(=O)c3ccccc3F)CC2)c(OC)c1 [CBK033601] | 125 | 
O=C(NCc1ccncc1)c1nn(-c2ncccn2)c2ccccc12 [CBK048498] | 93.1 | 
Cc1ccc(S(=O)(=O)N2CCC(C(=O)O)CC2)cc1C(=O)O [CBK266636] | 99.6 | 
O=C(NCCOc1ccc(-c2ccc(F)cc2)nn1)c1ccc(Br)o1 [CBK294429] | 83.1 | 
CC(=O)c1cc(C(=O)N2CCC(O)(c3cccc(C)c3)CC2)cs1 [CBK282531] | 92.8 | 
O=C(O)c1ccc(S(=O)(=O)c2ccc3c(c2)C(=O)N(c2cc(C(=O)O)cc(C(=O)O)c2)C3=O)cc1 [CBK262824] | 92.8 | 
COc1ccc(CO)cc1OCc1ccccc1 [CBK051334] | 110 | 
CC(=O)Nc1cccc(-c2cnc3[nH]c(=O)n([C@H](C)c4ccccc4)c3n2)c1 [CBK064188] | 95.9 | 
COc1ccccc1CN(C)C(C)=O [CBK024120] | 118 | 
Cc1ccc(C)c(NS(=O)(=O)c2cc(C(=O)NCc3ccccn3)ccc2C)c1 [CBK269110] | 98.3 | 
O=C(NC1CCN(Cc2c(F)cccc2Cl)CC1)C1CCN(C(=O)OCc2ccccc2)CC1 [CBK074720] | 108 | 
CN1CCN(C(=O)c2ccc3nc(-c4ccccc4)c(-c4ccccc4)nc3c2)CC1 [CBK267257] | 98.7 | 
Cc1cc(S(=O)(=O)N2CCN(c3ccc(Cl)cc3)CC2)c(C)cc1Cl [CBK044965] | 114 | 
CC(C)OC(=O)N1CCC(N(C)Cc2ccc(-c3ccc(S(C)(=O)=O)cc3)nc2)CC1 [CBK165261T] | 121 | 
Cc1nccn1CCNC(=O)Cn1cnc2ccccc21 [CBK281983] | 102 | 
O=S(=O)(Nc1cccc(-c2cnco2)c1)c1cc(C(F)(F)F)cc(C(F)(F)F)c1 [CBK067127] | 109 | 
CC(=O)N1CCN(c2ncnc3c2nnn3-c2ccccc2)CC1 [CBK287753] | 92.9 | 

SMILES | viability at 28.5 h, 10 µM (% viability) [%] | also measured
S=C(Nc1ncn(Cc2ccc(Cl)c(Cl)c2)n1)Nc1ccc(Br)cc1Cl [CBK266940] | 92.7 | 
O=C(NC1CCCCC1)c1cc(Br)cnc1NCc1cccnc1 [CBK076439] | 91 | 
CC(C)Oc1cccc(C(=O)Nc2ccc(N3CCN(C)CC3)cc2)c1 [CBK266090] | 90.5 | 
Cc1cc(Cl)cc(Br)c1OCCN1CCN(C)CC1 [CBK269668C] | 93.9 | 
COc1ccc(S(=O)(=O)n2ccc3cc(N4CCN(C)CC4)ccc32)cc1OC [CBK000286C] | 79.6 | 
Cc1cccnc1C(c1ccc(F)cc1)N(C)C(=O)C1CCN(CCc2ccc(Br)cc2)CC1 (stereo not shown) [CBK148397] | 90.5 | 
COc1cc(-c2cc(Nc3ccc(N(C)C)cc3)ncn2)cc(OC)c1OC [CBK090945] | 38.7 | 
CCc1nc2c(OCCOC)cccn2c1N(C)C(=O)c1ccccc1F [CBK147722] | 91.3 | 
CCOC(=O)CC(=O)CSc1nc2nc(C)cc(C)n2n1 [CBK268469] | 99.8 | 
CCCC(=O)Nc1cccnc1N1CCNCC1 [CBK004732T] | 94 | 
O=c1[nH]cc(-c2ccccc2)cc1CNCC1Cc2ccccc2O1 (stereo not shown) [CBK284772] | 92.3 | 
COc1ccc(Cc2nc3ccccc3n2CCc2ccccc2)cc1 [CBK266385] | 95.2 | 
Cc1ccccc1Cc1cccc(C2CCN(C(=O)Cc3ccccc3)CC2)n1 [CBK285625] | 94.7 | 
N=c1n(-c2ccccc2)c(O)c(C(c2ccncc2)c2c(O)n(-c3ccccc3)c(=N)n(-c3ccccc3)c2=O)c(=O)n1-c1ccccc1 (stereo not shown) [CBK261438] | 82 | 
CC(C)C(=O)Nc1c(-c2ccccc2)cnc2ncccc12 [CBK083713] | 94.8 | 
O=[N+]([O-])c1ccccc1S(=O)(=O)Nc1cc(C(F)(F)F)ccc1Cl [CBK015721] | 93.3 | 
COC(=O)c1ccc2c(=O)n(CC3CCCO3)c(SCCO)nc2c1 (stereo not shown) [CBK306041] | 109 | 
O=C(NCCc1cccnc1)Nc1ccc(CN2CCCC2=O)cc1 [CBK306461] | 80 | 
Cc1cc(C)n(CC(C)CNC(=O)Cc2csc(N3CCCC3=O)n2)n1 (stereo not shown) [CBK305624] | 91.2 | 
COc1cc(CNn2cnnc2S)ccc1OCC(=O)NC(C)(C)C [CBK266429] | 92.5 | 
CN1CCN(C(=O)CCn2c(C(F)(F)F)cc3cccnc32)CC1 [CBK284896] | 93.7 | 
CSCCCNC(=O)N1CCN(CCN2CCOCC2)CC1 [CBK155669] | 90.9 | 
COc1ccccc1NC(=O)Cn1c(=O)oc2cc(Cl)ccc21 [CBK269344] | 94.6 | 
CCOC(=O)CSc1nc(-c2ccc(C)cc2)cs1 [CBK007039] | 90.4 | 
COc1ccccc1-c1ccc(Nc2ccccc2)nc1 [CBK036909] | 85.4 | 
CN1CCN(C(=O)c2ccc(Cl)cc2)CC1 [CBK126096] | 104 | 
CCN1CCN(C(=O)c2ccccc2N(Cc2ccccc2)S(C)(=O)=O)CC1 [CBK267028] | 101 | 

SMILES | viability at 28.5 h, 10 µM (% viability) [%] | also measured
CC1(C)CCCC1NC(=O)NCc1cccc(-c2nnc[nH]2)c1 (stereo not shown) [CBK305236] | 83.9 | 
O=C(N/N=C/c1cc2c(cc1Br)OCO2)c1ccc(CN2CCOCC2)cc1 [CBK262721] | 90.1 | 
CC1CCc2c(sc3nc(SCC(=O)NC(c4ccccc4)c4ccccc4)nc(N)c23)C1 (stereo not shown) [CBK267274] | 91.1 | 
CS(=O)(=O)c1ccc(-c2c[nH]c([C@@H]3COCCN3C3CCCCC3)n2)cc1 [CBK289299] | 102 | 
C/C(=N/NC(=O)C(C)CN1CCOCC1)c1ccc(Cl)cc1 (stereo not shown) [CBK016045] | 81.4 | 
CCc1csc(C(=Cc2cccs2)C(N)=O)n1 [CBK001007] | 90.2 | 
O=C(Cc1ccccc1)Nc1ccc(NC(=O)c2ccc(-c3ccccc3)cc2)cc1 [CBK268821] | 87.2 | 
S=C(NNC(=S)Nc1ccc(Cl)c(Cl)c1)Nc1cccnc1 [CBK268483] | 96.2 | 
COc1cccc(CN2C(=O)CC3(C2=O)C(=O)N(Cc2ccc4ccccc4n2)c2ccccc23)c1 (stereo not shown) [CBK076016] | 96.2 | 
O=C(NCCCC1CCOC1)c1[nH]nc2c1CCCCC2 (stereo not shown) [CBK283154] | 88.7 | 
CCCCN(C)c1c(CC)nc2ccc(C(=O)NCCc3ccccn3)cn12 [CBK145441] | 98.4 | 
Cn1c(=O)c2c(nc(NCCCO)n2C/C=C/c2ccccc2)n(C)c1=O [CBK268940] | 87.2 | 
CN(C)[C@@H]1C[C@H](C2(c3ccccc3)OCCO2)CC[C@H]1N(C)C(=O)Cc1ccc(Cl)c(Cl)c1 [CBK016338] |  | viability at 28.5 h, 10 µM: 87.8%
Cc1cc2ccccc2n1CCCNC(=O)c1ccc(=O)n(C)c1 [CBK282982] | 104 | 
COc1ccc(-c2nccnc2OC)c(OC)c1 [CBK107039] | 114 | 
C[C@@H]1CNCCN1c1cc(C(F)(F)F)cc(OCc2ccccc2)n1 [CBK026755] | 79.1 | 
N#Cc1ccccc1N1CCN(c2cncc(-c3cccs3)n2)CC1 [CBK065656] | 104 | 
N#CCCCN1CCCN(c2nccc(OCC3COc4ccccc4O3)n2)CC1 (stereo not shown) [CBK083977] | 90.2 | 
O=C(CCn1c(C(F)F)cc2cccnc21)N1CCOCC1 [CBK284956] | 101 | 
COc1ccc(C(=O)NCCc2ccc(S(N)(=O)=O)cc2)cc1[N+](=O)[O-] [CBK264335] | 99.8 | 
c1ccc(CNc2nc(-c3ccsc3)cn3ccnc23)cc1 [CBK037868] | 88 | 
CNC(=S)N/N=C/c1c(C)cccc1Cl [CBK021253] | 84.6 | 
COc1ccccc1N1CCN(/N=C\c2ccccc2OCC(=O)O)CC1 [CBK263173C] | 93.5 | 
O=C(CSc1ncn(-c2ccccc2)n1)Nc1cc(Cl)cc(Cl)c1 [CBK268261] | 92 | 
O=C(NCCN1CCOCC1)c1cc(Br)cnc1N1CCOCC1 [CBK076202] | 104 | 
